# Test results taken from patent US20260365670A1, “EGFR INHIBITORS AND USES THEREOF” (DIZAL (JIANGSU) PHARMACEUTICAL CO., LTD., priority 2022, published 2026).
# Where two headings read alike, the source gives them in different places.
# Legend:
# [1] = system: Ba/F3 cells expressing EGFR mutations; test: Cell proliferation assay, Ba/F3 cells expressing EGFR mutations (CellTiter-Glo, 72 hours); assay type: cell-based
# Outline: (§1)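 In RPMI1640 medium (PC-9 with 10% FBS), each cell line was seeded at its own density: Ba/F3 5000 and PC-9 500 per well. A compound series was added the next day, with a time-zero viability plate read in parallel. Percent proliferation was subtracted for G0 and referenced to DMSO, and GI50 was derived by curve fitting.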
# EGFR Exon19Del = molecular target: T1, EGFR Exon19Del (Homo sapiens, UniProt P00533, DEL746-750); test: Inhibition of EGFR Exon19Del biochemical enzymatic activity (HTRF); details: 1 mM ATP, 1 h at room temperature
# T1 construct: purchased Carna Bio
# Outline: (§2)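 Following 1 h at room temperature with titrated compound, 1 mM ATP and 1 μM biotin-TK peptide (Mg2+/Mn2+, CHAPS, DTT, 0.5% DMSO buffer), EDTA-containing detection reagent terminated each enzyme reaction. Time-resolved fluorescence (ex 320, em 665/615 nm) ratio tracked activity. IC50 values came from four-parameter fits.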
# EGFR (d746-750 C797S) = molecular target: T2, EGFR (d746-750 C797S) (Homo sapiens, UniProt P00533, C797S/DEL746-750); test: Inhibition of EGFR (d746-750 C797S) biochemical enzymatic activity (HTRF); details: EGFR (d746-750 C797S), 1 mM ATP, 1 h at room temperature
# T2 construct: purchased signalchem
# Outline: as §2
# EGFR wild type = molecular target: T3, EGFR wild type (Homo sapiens, UniProt P00533); test: Inhibition of EGFR wild type biochemical enzymatic activity (HTRF); details: EGFR wild type, 1 mM ATP, 1 h at room temperature
# T3 construct: purchased Carna Bio
# Outline: as §2
# EGFR (C797S L858R) = molecular target: T4, EGFR (C797S L858R) (Homo sapiens, UniProt P00533, C797S/L858R); test: Inhibition of EGFR (C797S L858R) biochemical enzymatic activity (HTRF); details: EGFR (C797S L858R), 1 mM ATP, 1 h at room temperature
# T4 construct: purchased signalchem
# Outline: as §2
# PC-9 = test: Cell proliferation assay, PC-9 cells (CellTiter-Glo, 72 hours); assay type: cell-based; details: PC9 cells, read-out: GI50 PC9
# Outline: as §1
# EGFR[T790M/C797S/L858R] = molecular target: T5, EGFR[T790M/C797S/L858R] (Homo sapiens, UniProt P00533, C797S/L858R/T790M); test: Inhibition of EGFR[T790M/C797S/L858R] biochemical enzymatic activity (HTRF); details: EGFR[T790M/C797S/L858R], 1 mM ATP, 1 h at room temperature
# T5 construct: purchased Carna Bio
# Outline: as §2
# EGFR L858R = molecular target: T6, EGFR L858R (Homo sapiens, UniProt P00533, L858R); test: Inhibition of EGFR L858R biochemical enzymatic activity (HTRF); details: 1 mM ATP, 1 h at room temperature
# T6 construct: purchased Carna Bio
# Outline: as §2
# EGFR L858R/T790M = molecular target: T7, EGFR L858R/T790M (Homo sapiens, UniProt P00533, L858R/T790M); test: Inhibition of EGFR L858R/T790M biochemical enzymatic activity (HTRF); details: EGFR L858R/T790M, 1 mM ATP, 1 h at room temperature
# T7 construct: purchased Carna Bio
# Outline: as §2
# A-431 = test: Cell proliferation assay, A-431 cells (GI50, Table 6); assay type: cell-based
# Procedure: [Worded in the source for another cell line; this cell line is reported under the same test.] Ba/F3 cells expressing EGFR mutations were seeded in 384-well plates at 5000 cells/well in RPMI1640 medium containing […]. PC-9 at 500 cells/well was seeded into 384-well plates in RPMI1640 medium with 10% FBS. After overnight incubation, the assay plates were dosed with compounds at a series of concentrations. Alongside dosing the assay plates, the day 0 plate was processed using CellTiter-Glo® Luminescent Cell Viability Assay (Promega) to measure the number of viable cells (G0). The assay plates were further incubated for 72 hours and the number of viable cells (G3) was measured. The percentage of proliferation was calculated as: […]=100×(G3 value of sample well−G0 value)/(G3 value of DMSO control−G0 value). The concentration of compound producing 50% proliferation inhibition (GI50) was further calculated in best-fit curves using XLFit software. N/A=not available.
# [2] = molecular target: T8, EGFR[T790M/C797S/d746-750] (Homo sapiens, UniProt P00533, C797S/DEL746-750/T790M); test: Inhibition of EGFR[T790M/C797S/d746-750] biochemical enzymatic activity (HTRF); details: 1 mM ATP, 1 h at room temperature
# T8 construct: purchased Carna Bio
# Outline: as §2
# EGFR Exon19Del/T790M = molecular target: T9, EGFR Exon19Del/T790M (Homo sapiens, UniProt P00533, DEL746-750/T790M); test: Inhibition of EGFR Exon19Del/T790M biochemical enzymatic activity (HTRF); details: EGFR Exon19Del/T790M, 1 mM ATP, 1 h at room temperature
# T9 construct: purchased Carna Bio
# Outline: as §2
# [3] = BaF3 cells, EGFR DEL19 - C797S, read-out: GI50 DEL19 - C797S/BaF3
# [4] = BaF3 cells, EGFR DEL19 - T790-C797S, read-out: GI50 DEL19 - T790-C797S/BaF3
# [5] = BaF3 cells, EGFR L858R - C797S, read-out: GI50 L858R - C797S/BaF3
# [6] = BaF3 cells, EGFR L858R - T790-C797S, read-out: GI50 L858R - T790-C797S/BaF3
# [7] = BaF3 cells, EGFR L858R - T790M, read-out: GI50 L858R - T790M/BaF3
# [8] = BaF3 cells, EGFR L858R, read-out: GI50 L858R/BaF3
# [9] = EGFR DEL19 - T790M, read-out: GI50 DEL19 - T790M
# [10] = Homo sapiens, A-431, A-431 cells
# [11] = EGFR Exon19Del, read-out: IC50 @Del19
# [12] = read-out: IC50 @T790M- C797S - L858R
# [13] = EGFR[T790M/C797S/d746-750], read-out: IC50 @T790M - C797S - Del19
# T2 sequence (P00533 with tags, fused parts or gaps DEL746-750/C797S limits assumed): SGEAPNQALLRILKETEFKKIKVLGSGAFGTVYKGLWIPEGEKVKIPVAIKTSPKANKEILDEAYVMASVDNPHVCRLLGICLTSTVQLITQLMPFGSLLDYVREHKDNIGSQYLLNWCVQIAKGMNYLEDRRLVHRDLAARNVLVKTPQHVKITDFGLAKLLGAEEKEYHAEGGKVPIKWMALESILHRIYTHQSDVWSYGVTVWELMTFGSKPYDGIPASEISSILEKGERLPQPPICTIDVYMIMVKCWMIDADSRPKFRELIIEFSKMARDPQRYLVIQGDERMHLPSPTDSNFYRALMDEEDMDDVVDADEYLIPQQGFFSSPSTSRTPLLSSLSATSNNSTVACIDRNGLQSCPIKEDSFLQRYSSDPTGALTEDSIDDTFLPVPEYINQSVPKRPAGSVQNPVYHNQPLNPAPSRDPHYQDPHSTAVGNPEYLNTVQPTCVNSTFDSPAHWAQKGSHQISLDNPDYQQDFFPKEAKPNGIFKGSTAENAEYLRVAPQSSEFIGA
# T3 sequence (P00533 25-1210): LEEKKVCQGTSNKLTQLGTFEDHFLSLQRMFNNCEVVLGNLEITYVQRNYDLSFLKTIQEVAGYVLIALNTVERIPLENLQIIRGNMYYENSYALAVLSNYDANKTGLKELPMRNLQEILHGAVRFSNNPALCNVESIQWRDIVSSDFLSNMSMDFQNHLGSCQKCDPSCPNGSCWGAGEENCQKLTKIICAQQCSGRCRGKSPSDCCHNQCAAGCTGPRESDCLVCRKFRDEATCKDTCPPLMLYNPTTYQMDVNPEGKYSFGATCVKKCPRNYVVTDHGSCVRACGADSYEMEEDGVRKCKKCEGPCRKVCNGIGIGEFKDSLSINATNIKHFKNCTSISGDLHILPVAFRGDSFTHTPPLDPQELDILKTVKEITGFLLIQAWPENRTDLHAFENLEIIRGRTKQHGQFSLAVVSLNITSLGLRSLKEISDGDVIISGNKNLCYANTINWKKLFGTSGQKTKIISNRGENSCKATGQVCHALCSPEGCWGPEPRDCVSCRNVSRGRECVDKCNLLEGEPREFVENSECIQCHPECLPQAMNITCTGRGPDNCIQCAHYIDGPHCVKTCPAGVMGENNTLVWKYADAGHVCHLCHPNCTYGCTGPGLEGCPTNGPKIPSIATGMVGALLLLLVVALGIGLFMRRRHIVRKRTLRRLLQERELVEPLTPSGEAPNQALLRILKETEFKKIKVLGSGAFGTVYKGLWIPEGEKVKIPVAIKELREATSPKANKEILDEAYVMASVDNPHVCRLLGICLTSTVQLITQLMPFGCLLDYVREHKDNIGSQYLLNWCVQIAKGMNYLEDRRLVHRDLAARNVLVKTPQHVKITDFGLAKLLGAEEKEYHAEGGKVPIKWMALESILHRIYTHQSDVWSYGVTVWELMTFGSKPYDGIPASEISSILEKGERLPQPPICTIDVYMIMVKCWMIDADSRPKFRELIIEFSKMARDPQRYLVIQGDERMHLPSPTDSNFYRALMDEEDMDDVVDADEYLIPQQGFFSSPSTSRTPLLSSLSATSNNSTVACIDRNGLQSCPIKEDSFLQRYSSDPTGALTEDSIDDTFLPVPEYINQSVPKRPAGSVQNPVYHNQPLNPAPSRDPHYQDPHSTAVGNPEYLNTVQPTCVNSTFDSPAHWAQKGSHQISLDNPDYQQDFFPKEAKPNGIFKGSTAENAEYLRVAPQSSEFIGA
# T4 sequence (P00533 25-1210 C797S/L858R): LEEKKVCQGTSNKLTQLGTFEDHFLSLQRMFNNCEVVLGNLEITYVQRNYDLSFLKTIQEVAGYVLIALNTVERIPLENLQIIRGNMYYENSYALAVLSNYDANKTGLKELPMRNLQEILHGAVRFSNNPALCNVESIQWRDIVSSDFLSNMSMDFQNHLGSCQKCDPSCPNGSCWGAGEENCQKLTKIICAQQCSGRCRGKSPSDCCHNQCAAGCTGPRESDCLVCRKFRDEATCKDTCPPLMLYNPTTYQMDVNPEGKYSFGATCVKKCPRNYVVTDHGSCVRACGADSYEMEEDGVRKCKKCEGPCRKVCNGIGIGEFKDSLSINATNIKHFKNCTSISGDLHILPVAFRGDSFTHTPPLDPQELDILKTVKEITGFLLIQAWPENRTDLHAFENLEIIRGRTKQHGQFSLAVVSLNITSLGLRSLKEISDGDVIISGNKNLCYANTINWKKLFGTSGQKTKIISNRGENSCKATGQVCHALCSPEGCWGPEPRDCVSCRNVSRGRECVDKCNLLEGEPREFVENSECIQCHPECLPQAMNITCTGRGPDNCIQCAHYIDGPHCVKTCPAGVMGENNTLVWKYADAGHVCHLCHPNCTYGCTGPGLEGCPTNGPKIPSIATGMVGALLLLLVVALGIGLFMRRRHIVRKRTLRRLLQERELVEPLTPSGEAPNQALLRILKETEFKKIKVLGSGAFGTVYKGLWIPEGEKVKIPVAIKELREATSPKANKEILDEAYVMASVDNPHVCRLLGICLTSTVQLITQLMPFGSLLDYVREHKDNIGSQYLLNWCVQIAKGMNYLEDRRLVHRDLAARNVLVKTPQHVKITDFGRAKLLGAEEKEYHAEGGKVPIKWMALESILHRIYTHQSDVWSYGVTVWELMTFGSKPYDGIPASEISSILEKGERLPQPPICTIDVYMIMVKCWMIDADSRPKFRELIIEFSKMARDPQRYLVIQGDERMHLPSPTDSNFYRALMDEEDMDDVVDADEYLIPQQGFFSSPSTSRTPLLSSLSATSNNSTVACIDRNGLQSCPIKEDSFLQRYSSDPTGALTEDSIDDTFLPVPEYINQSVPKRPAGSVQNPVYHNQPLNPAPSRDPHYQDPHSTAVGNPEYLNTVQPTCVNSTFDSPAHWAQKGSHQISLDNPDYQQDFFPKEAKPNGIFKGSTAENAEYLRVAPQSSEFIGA
# T7 sequence (P00533 25-1210 T790M/L858R): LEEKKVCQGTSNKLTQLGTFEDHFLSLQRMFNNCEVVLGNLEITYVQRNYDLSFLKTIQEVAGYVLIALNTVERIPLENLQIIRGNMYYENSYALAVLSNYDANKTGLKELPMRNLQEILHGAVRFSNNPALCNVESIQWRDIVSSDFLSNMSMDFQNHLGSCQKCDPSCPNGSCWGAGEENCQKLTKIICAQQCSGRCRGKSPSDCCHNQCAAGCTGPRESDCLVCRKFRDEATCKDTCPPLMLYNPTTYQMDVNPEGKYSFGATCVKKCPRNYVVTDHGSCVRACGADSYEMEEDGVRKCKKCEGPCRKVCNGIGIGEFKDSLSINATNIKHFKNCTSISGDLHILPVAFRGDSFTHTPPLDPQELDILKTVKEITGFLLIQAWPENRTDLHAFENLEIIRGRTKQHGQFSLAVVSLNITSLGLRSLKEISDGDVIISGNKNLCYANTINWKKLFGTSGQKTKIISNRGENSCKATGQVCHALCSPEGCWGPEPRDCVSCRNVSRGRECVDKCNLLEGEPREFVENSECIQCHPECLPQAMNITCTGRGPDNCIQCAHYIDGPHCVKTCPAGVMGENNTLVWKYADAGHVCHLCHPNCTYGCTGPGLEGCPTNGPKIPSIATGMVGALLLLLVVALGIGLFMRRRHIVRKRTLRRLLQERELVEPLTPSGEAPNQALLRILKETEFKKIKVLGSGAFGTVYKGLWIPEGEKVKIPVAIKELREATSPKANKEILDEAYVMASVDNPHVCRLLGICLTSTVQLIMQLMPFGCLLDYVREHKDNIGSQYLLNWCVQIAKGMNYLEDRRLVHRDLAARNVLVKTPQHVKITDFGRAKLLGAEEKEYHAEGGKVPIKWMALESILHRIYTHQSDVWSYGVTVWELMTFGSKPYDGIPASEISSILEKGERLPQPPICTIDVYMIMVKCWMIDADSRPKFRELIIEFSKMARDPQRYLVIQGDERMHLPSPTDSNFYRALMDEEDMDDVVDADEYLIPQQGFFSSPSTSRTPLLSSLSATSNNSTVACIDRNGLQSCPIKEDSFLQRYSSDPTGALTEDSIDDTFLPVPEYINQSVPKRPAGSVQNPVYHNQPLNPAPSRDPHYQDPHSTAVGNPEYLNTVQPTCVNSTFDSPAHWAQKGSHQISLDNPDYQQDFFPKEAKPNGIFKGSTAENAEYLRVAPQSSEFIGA
# T9 sequence (P00533 with tags, fused parts or gaps DEL746-750/T790M limits assumed): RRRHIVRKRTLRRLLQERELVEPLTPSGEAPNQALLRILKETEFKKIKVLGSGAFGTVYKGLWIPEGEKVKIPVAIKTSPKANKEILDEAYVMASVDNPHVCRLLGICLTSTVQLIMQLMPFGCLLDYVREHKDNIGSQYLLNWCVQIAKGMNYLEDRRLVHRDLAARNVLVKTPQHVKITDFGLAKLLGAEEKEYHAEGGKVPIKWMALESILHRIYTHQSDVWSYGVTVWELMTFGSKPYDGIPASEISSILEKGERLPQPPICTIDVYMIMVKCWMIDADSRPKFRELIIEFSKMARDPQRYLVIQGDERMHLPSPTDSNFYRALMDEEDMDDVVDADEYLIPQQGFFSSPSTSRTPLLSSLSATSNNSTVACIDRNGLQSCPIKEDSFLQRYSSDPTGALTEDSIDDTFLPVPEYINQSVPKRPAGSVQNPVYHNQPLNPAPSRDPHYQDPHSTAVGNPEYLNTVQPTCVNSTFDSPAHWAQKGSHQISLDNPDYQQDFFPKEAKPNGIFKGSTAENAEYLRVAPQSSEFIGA
"GI50 [1, 3] [nM]","GI50 [1, 4] [nM]","GI50 [1, 5] [nM]","GI50 [1, 6] [nM]","GI50 [1, 7] [nM]","GI50 [1, 8] [nM]","GI50 [1, 9] [nM]",GI50 (PC-9) [nM],GI50 (A-431; [10]) [nM],IC50 (EGFR Exon19Del; [11]) [nM],IC50 (EGFR (d746-750 C797S); read-out: IC50 @Del19-C797S) [nM],IC50 (EGFR wild type; read-out: IC50 @WT) [nM],IC50 (EGFR (C797S L858R); read-out: IC50 @L858-C797S) [nM],IC50 (EGFR[T790M/C797S/L858R]; [12]) [nM],IC50 (EGFR L858R; read-out: IC50 @L858R) [nM],IC50 (EGFR L858R/T790M; read-out: IC50 @L858R-T790M) [nM],"IC50 [2, 13] [nM]",IC50 (EGFR Exon19Del/T790M; read-out: IC50 @Del19-T790M) [nM],SMILES,also measured
2,2,6,2,2,8,2,9,333,–,–,–,–,–,–,–,–,–,"Cc1cc2cc(n1)-c1cnn(C)c1OCCN1CC3CCC(C3)(C1)n1c(nc3ccc(N4CCC(N(C)C)CC4)cc31)NC2=O (single isomer, unassigned) [Example B40B, 5-[4-(dimethylamino)piperidin-1-yl]-15,21-dimethyl-23-oxa-2,9,11,16,20,21,26-heptaazaheptacyclo[24.4.1.1^{1,28}.1^{13,17}.0^{2,10}.0^{3,8}.0^{18,22}]tritriaconta-3,5,7,9,13,15,17(33),18(22),19-nonaen-12-one]","IC50 (EGFR Exon19Del; IC50 @Del19, EGFR Exon19Del): 4.5 nM; IC50 (EGFR (d746-750 C797S); IC50 @Del19-C797S): 2.2 nM; IC50 (EGFR wild type; IC50 @WT): 100 nM; IC50 (EGFR (C797S L858R); IC50 @L858-C797S): 4.4 nM; IC50 (EGFR[T790M/C797S/L858R]; IC50 @T790M- C797S - L858R): 2.4 nM; IC50 (EGFR L858R; IC50 @L858R): 15 nM; IC50 (EGFR L858R/T790M; IC50 @L858R-T790M): 3.3 nM; IC50 ([2]; IC50 @T790M - C797S - Del19, EGFR[T790M/C797S/d746-750]): 2.3 nM; IC50 (EGFR Exon19Del/T790M; IC50 @Del19-T790M): 4.7 nM"
2,2,7,2,2,12,2,8,1790,7.5,3,581,8.8,2.2,34,4.2,3.3,4.9,"Cc1cc2cc(n1)-c1cnn(C)c1OCCN1CC3CCC(C3)(C1)n1c(nc3ccc(N4CC[C@H](N(C)C)C4)cc31)NC2=O (single isomer, unassigned) [Example B41B]",–
2,2,7,2,2,12,2,7,437,6.6,3,489,9,2.3,36,4.8,3,5.2,"Cc1cc2cc(n1)-c1cnn(C)c1OCCN1CC3CCC(C3)(C1)n1c(nc3ccc(N4CC5CN(C)CC5C4)cc31)NC2=O (single isomer, unassigned) [Example B43B]",–
2,2,6,2,2,24,7,22,3690,34,12,> 5000,66,6.4,337,19,8.8,12,"Cc1cc2cc(n1)-c1cnn(C)c1OCCN1CC3CCC(C3)(C1)n1c(nc3ccc(N4CCC(N5CCOCC5)C4)cc31)NC2=O (single isomer, unassigned) [Example B44B1]",–
2,2,11,2,2,19,8,22,–,21,8.5,4900,66,5.5,267,14,7,8.4,"Cc1cc2cc(n1)-c1cnn(C)c1OCCN1CC3CCC(C3)(C1)n1c(nc3ccc(N4CCC(N5CCOCC5)C4)cc31)NC2=O (single isomer, unassigned) [Example B44B2]",GI50 (A-431; A-431 cells): 3060 nM
2,2,12,2,2,15,2,13,929,18,8.1,> 5000,50,4.9,170,13,4.3,6.4,"Cc1cc2cc(n1)-c1cnn(C)c1OCCN1CC3CCC(C3)(C1)n1c(nc3ccc(N4CCC(N5CCOCC5)C4)cc31)NC2=O (single isomer, unassigned) [Example B44B]",–
2,2,4,2,2,11,2,10,1680,5.3,2.4,1020,14,1.4,46,3.8,1.7,2.8,"Cc1cc2cc(n1)-c1cnn(C)c1OCCN1CC3CCC(C3)(C1)n1c(nc3ccc(N(C)CCCN(C)C)cc31)NC2=O (single isomer, unassigned) [Example B45B]",–
977,492,2500,198,919,7610,497,3050,–,> 5000,> 5000,> 5000,> 5000,> 5000,> 5000,> 5000,> 5000,> 5000,"COCCN(C)c1ccc2nc3n(c2c1)C12CCC(CN(CCOc4c(cnn4C)-c4cc(cc(C)n4)C(=O)N3)C1)C2 (single isomer, unassigned) [Example B46A]",GI50 (A-431; A-431 cells): 7830 nM
